These are literature values, as cited in US9682063B2, “HCD formulation for cancer treatment” (National Dong Hwa University, priority 2015, dated 2017).

One data set relates to CML K562 cells. The note with it: background statement.
The conditions of data set [1]: background statement.

As to `CC1=CCCC2C1(C)CCC(C)C2(C)CCC1=CC(=O)OC1O` (centres unmarked) [HCD, 16-Hydroxycleroda-3,13-dien-15,16-olide], the “apoptosis in CML K562 cells” value in the data set on CML K562 cells is “induces apoptosis in CML K562 cells”. For the same compound, the water solubility result in data set [1] is “poor water solubility”.
